Data as given in patent US20250243171A1, “QUINAZOLINE COMPOUNDS FOR TREATMENT OF DISEASE” (Arthrosi Therapeutics, Inc., priority 2021, published 2025).
Counter-ions that a name gives are not always drawn.

Assays:
Test in all cases: EC50 assay: Ba/F3 stable cell proliferation (CCK-8, 72 h)
Type in all cases: cell-based
Ba/F3 stable cells [1] = target: T1, Ba/F3 stable cells (Homo sapiens, UniProt P00533, INS763FQEA, cells depend on it); conditions: Ba/F3-EGFR A763-Y764insFQEA cells
T1 construct: EC50 Ba/F3-EGFR A763-Y764insFQEA; other: Ba/F3-EGFR A763-Y764insFQEA cells, 72 h, CCK-8
T1 sequence (P00533 with tags, fused parts or gaps INS763FQEA): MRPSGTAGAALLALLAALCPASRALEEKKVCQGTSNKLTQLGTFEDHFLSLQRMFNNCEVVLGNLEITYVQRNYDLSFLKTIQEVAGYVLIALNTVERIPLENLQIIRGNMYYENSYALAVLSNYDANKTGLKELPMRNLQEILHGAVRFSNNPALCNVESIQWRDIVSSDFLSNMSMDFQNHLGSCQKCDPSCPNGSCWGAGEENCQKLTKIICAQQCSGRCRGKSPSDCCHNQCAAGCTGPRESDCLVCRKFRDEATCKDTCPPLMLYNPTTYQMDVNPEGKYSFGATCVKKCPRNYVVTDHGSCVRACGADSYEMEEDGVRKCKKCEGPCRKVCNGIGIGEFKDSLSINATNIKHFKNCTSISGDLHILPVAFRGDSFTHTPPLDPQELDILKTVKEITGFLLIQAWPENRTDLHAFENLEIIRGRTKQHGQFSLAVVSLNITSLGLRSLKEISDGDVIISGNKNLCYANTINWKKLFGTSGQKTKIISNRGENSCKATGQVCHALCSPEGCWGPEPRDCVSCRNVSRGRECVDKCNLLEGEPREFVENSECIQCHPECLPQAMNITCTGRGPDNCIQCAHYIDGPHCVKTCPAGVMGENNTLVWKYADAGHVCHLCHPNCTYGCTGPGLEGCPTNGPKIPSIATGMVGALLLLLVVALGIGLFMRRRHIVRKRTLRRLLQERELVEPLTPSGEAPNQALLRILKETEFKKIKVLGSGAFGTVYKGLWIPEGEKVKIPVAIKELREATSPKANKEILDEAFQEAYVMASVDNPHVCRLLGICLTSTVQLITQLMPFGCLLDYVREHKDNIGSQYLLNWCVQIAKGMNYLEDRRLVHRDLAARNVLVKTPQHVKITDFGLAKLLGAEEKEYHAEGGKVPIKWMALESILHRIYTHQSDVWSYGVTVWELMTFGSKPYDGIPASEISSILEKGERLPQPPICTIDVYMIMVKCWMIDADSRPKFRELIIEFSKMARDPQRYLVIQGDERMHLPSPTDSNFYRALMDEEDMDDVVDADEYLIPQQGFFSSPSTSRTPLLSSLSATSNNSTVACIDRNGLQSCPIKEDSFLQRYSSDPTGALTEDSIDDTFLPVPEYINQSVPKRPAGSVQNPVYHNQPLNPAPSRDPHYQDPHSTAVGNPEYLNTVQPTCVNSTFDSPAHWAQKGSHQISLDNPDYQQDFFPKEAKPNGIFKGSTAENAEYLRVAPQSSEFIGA
How it was run: (§1)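 Ba/F3 stable cells were seeded at 4,000 cells/90 μL/well in 96-well plates and held 2 h at 37° C. in 5% CO2, then given 10 μL of serially titrated compound (0.1% DMSO final). After 72 h at 37° C., CCK-8 reagent was added for 4 hours and absorbance read at 450 nm to derive EC50.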

Ba/F3 stable cells [2] = target: T2, Ba/F3 stable cells (Homo sapiens, UniProt P00533, DUP767-769, cells depend on it); conditions: Ba/F3-EGFR V769-D770insASV cells
T2 construct: EC50 Ba/F3-EGFR V769-D770insASV; other: Ba/F3-EGFR V769-D770insASV cells, 72 h, CCK-8
How it was run: as §1

Ba/F3 stable cells [3] = target: T3, Ba/F3 stable cells (Homo sapiens, UniProt P00533, DUP771-773, cells depend on it); conditions: Ba/F3-EGFR H773-V774insNPH cells
T3 construct: EC50 Ba/F3-EGFR H773-V774insNPH; other: Ba/F3-EGFR H773-V774insNPH cells, 72 h, CCK-8
T3 sequence (P00533 with tags, fused parts or gaps DUP771-773): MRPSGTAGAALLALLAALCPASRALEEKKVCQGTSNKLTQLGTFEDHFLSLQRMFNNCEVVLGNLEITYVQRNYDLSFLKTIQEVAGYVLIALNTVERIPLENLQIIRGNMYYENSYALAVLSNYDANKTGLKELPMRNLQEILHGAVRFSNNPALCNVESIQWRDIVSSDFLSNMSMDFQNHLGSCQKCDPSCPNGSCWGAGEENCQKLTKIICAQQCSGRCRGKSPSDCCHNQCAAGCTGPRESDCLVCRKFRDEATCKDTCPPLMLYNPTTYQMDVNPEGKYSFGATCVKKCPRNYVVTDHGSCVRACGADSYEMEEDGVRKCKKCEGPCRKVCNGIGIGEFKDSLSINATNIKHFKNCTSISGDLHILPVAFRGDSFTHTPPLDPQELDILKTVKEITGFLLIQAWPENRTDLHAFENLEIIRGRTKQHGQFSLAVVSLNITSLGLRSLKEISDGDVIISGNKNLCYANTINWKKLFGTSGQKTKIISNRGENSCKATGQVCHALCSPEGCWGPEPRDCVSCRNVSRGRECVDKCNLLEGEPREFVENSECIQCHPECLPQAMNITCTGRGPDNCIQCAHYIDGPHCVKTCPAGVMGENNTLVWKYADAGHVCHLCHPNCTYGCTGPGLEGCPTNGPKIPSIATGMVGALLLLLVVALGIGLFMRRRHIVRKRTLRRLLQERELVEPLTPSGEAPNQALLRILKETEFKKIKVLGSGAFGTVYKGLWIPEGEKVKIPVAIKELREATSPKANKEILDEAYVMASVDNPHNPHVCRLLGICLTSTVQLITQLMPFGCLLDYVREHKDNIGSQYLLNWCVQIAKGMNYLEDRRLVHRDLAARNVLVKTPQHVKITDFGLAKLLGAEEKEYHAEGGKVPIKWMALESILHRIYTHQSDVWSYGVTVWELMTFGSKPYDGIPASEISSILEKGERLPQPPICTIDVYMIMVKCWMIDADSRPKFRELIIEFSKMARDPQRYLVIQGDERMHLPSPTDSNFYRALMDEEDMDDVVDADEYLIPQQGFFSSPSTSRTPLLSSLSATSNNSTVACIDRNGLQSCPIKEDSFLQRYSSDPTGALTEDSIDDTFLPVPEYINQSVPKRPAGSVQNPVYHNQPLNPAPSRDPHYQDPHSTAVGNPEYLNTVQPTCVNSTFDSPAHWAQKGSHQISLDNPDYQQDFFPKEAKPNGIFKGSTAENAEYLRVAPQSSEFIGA
How it was run: as §1

Ba/F3 stable cells [4] = target: T4, Ba/F3 stable cells (Homo sapiens, UniProt P00533, T790M/L858R, cells depend on it); conditions: Ba/F3-EGFR L858R-T790M cells
T4 construct: EC50 Ba/F3-EGFR L858R-T790M; other: Ba/F3-EGFR L858R-T790M cells, 72 h, CCK-8
How it was run: as §1

Ba/F3 stable cells [5] = target: T5, Ba/F3 stable cells (Homo sapiens, UniProt P00533, DUP768-770, cells depend on it); conditions: Ba/F3-EGFR D770-N771insSVD cells
T5 construct: EC50 Ba/F3-EGFR D770-N771insSVD; other: Ba/F3-EGFR D770-N771insSVD cells, 72 h, CCK-8
T5 sequence (P00533 with tags, fused parts or gaps DUP768-770): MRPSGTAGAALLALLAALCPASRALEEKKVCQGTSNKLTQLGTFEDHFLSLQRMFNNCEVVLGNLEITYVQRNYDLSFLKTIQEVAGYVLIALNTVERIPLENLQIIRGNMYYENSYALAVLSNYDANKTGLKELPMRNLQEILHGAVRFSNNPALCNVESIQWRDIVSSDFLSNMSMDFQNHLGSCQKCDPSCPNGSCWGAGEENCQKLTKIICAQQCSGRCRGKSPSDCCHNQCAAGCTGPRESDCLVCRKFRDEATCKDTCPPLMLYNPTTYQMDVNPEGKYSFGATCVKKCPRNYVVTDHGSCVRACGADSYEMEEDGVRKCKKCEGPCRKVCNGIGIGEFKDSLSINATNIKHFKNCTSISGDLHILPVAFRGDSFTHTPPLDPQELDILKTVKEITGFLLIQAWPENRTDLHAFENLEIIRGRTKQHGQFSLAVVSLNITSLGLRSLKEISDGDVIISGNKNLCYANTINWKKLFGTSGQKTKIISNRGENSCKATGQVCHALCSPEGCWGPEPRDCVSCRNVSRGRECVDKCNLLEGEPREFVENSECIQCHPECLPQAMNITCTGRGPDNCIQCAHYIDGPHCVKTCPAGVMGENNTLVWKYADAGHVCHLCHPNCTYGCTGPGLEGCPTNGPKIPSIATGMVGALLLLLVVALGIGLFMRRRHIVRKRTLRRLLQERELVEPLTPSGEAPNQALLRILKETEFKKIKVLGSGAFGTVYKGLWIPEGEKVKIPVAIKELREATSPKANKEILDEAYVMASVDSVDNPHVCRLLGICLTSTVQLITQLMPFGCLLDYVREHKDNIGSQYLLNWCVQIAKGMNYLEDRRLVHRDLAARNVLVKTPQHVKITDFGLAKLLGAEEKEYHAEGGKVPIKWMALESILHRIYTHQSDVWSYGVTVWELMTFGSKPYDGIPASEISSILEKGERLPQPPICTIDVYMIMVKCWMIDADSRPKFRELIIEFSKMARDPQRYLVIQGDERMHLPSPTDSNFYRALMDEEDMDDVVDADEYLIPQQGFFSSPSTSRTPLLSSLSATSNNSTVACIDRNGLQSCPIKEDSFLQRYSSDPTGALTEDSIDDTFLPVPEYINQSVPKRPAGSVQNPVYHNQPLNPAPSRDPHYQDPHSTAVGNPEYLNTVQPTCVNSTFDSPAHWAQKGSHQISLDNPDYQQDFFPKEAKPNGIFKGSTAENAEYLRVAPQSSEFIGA
How it was run: as §1

Ba/F3 stable cells [6] = target: T6, Ba/F3 stable cells (Homo sapiens, UniProt P04626, DUP772-775, cells depend on it); conditions: Ba/F3-HER2 A775-G776insYVMA cells
T6 construct: EC50 Ba/F3-HER2 A775-G776insYVMA; other: Ba/F3-HER2 A775-G776insYVMA cells, 72 h, CCK-8
T6 sequence (P04626 with tags, fused parts or gaps DUP772-775): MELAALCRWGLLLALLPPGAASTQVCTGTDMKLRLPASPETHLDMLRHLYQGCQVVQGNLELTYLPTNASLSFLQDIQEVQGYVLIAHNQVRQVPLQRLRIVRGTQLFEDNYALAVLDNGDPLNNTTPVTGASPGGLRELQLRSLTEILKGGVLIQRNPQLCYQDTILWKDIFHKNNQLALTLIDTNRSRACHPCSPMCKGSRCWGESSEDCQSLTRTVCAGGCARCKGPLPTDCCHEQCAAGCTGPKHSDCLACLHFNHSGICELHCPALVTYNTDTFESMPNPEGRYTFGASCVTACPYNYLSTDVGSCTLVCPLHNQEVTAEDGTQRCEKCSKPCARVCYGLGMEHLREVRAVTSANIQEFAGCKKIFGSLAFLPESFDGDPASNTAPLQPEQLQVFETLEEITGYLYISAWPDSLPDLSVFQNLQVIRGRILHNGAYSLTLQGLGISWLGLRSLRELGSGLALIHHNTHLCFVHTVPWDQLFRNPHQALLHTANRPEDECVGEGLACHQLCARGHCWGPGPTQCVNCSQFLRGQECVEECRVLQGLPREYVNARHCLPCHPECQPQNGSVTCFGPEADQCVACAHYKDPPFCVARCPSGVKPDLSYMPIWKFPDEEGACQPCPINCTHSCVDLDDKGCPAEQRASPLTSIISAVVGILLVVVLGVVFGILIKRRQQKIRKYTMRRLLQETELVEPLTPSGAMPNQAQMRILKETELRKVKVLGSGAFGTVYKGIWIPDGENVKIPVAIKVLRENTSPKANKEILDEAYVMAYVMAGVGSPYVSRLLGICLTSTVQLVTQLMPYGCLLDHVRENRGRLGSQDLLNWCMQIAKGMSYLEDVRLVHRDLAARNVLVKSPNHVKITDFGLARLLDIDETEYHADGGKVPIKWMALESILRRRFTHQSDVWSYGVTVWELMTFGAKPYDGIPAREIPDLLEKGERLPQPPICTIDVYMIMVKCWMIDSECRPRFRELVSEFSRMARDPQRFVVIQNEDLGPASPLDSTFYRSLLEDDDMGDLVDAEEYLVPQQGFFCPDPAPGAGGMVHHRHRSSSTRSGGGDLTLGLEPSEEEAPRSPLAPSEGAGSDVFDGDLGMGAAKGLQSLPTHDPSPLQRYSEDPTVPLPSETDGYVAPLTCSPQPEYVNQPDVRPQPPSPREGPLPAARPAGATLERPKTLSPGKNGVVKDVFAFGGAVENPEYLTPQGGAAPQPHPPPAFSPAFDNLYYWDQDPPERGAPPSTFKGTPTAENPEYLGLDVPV
How it was run: as §1

SMILES	EC50 (Ba/F3 stable cells [1]) [nM]	EC50 (Ba/F3 stable cells [2]) [nM]	EC50 (Ba/F3 stable cells [3]) [nM]	EC50 (Ba/F3 stable cells [4]) [nM]	EC50 (Ba/F3 stable cells [5]) [nM]	EC50 (Ba/F3 stable cells [6]) [nM]
COc1cc2ncnc(Nc3ccc(Cl)c(Cl)c3F)c2cc1C1CN(C#N)C1 [Compound 195, 3-(4-((3,4-dichloro-2-fluorophenyl)amino)-7-methoxy-quinazolin-6-yl)azetidine-1-carbonitrile]	200 to 1000	> 1000	> 1000	200 to 1000	> 1000	200 to 1000
COc1cc2ncnc(Nc3ccc(Cl)c(Cl)c3F)c2cc1C1=CCCN(C#N)C1 [Compound 197, 5-(4-((3,4-dichloro-2-fluorophenyl)amino)-7-methoxy-quinazolin-6-yl)-3,6-dihydropyridine-1(2H)-carbonitrile]	200 to 1000	> 1000	> 1000	> 1000	> 1000	> 1000
C=CC(=O)N1CCC(Oc2c(OC)cc3ncnc4c3c2NC(=O)N4c2ccc(Cl)c(Cl)c2F)C1 (stereo not drawn) [Compound 205, 9-((1-acryloylpyrrolidin-3-yl)oxy)-3-(3,4-dichloro-2-fluorophenyl)-8-methoxy-1H-pyrimido[4,5,6-de]quinazolin-2(3H)-one]	200 to 1000	> 1000	> 1000	> 1000	> 1000	> 1000
COc1cc2ncnc(Nc3ccc(Cl)c(Cl)c3F)c2c([N+](=O)[O-])c1OC1CCNCC1 [Compound 207, N-(3,4-dichloro-2-fluorophenyl)-7-methoxy-5-nitro-6-(piperidin-4-yloxy)quinazolin-4-amine hydrochloride]	≤ 200	200 to 1000	200 to 1000	200 to 1000	> 1000	200 to 1000

More lines, now with the values ahead:

EC50 (Ba/F3 stable cells [1]) [nM]	EC50 (Ba/F3 stable cells [2]) [nM]	EC50 (Ba/F3 stable cells [3]) [nM]	EC50 (Ba/F3 stable cells [4]) [nM]	EC50 (Ba/F3 stable cells [5]) [nM]	EC50 (Ba/F3 stable cells [6]) [nM]	SMILES
≤ 200	≤ 200	200 to 1000	> 1000	200 to 1000	200 to 1000	COc1cc2ncnc(Nc3ccc(Cl)c(Cl)c3F)c2cc1OC1CC(N(C)C#N)C1 (stereo not drawn) [Compound 196, N-(3-((4-((3,4-dichloro-2-fluorophenyl)amino)-7-methoxy-quinazolin-6-yl)oxy)cyclobutyl)-N-methylcyanamide]
≤ 200	200 to 1000	200 to 1000	> 1000	> 1000	> 1000	COc1cc2ncnc(Nc3ccc(Cl)c(Cl)c3F)c2cc1OC1CCCN(C#N)C1 (stereo not drawn) [Compound 198, 3-((4-((3,4-dichloro-2-fluorophenyl)amino)-7-methoxy-quinazolin-6-yl)oxy)piperidine-1-carbonitrile]
≤ 200	200 to 1000	200 to 1000	200 to 1000	200 to 1000	200 to 1000	C=CC(=O)N1CCC(Oc2c(OC)cc3ncnc4c3c2NC(=O)N4c2ccc(Cl)c(Cl)c2F)CC1 [Compound 199, 9-((1-acryloylpiperidin-4-yl)oxy)-3-(3,4-dichloro-2-fluorophenyl)-8-methoxy-1H-pyrimido[4,5,6-de]quinazolin-2(3H)-one]
≤ 200	200 to 1000	200 to 1000	> 1000	> 1000	> 1000	C=CC(=O)N1CCC(Oc2c(OC)cc3ncnc4c3c2N(C)C(=O)N4c2ccc(Cl)c(Cl)c2F)CC1 [Compound 200, 9-((1-acryloylpiperidin-4-yl)oxy)-3-(3,4-dichloro-2-fluorophenyl)-8-methoxy-1-methyl-1H-pyrimido[4,5,6-de]quinazolin-2(3H)-one]
≤ 200	200 to 1000	> 1000	> 1000	> 1000	200 to 1000	C=CC(=O)N1CC=C(c2c(OC)cc3ncnc4c3c2N(C)C(=O)N4c2ccc(Cl)c(Cl)c2F)CC1 [Compound 206, 9-(1-acryloyl-1,2,3,6-tetrahydropyridin-4-yl)-3-(3,4-dichloro-2-fluorophenyl)-8-methoxy-1-methyl-1H-pyrimido[4,5,6-de]quinazolin-2(3H)-one]
